Like-named read-outs stand apart in the source and are kept apart here.
Legend:
SARS-CoV-2 PL^Pro = molecular target: T1, SARS-CoV-2 PL^Pro (Severe acute respiratory syndrome coronavirus 2, UniProt P0DTD1); test: biochemical
T1 construct: SARS-CoV-2 PL^Pro catalytic domain (746-1060); made in house

SARS-CoV-2 WT = test: Anti-viral activity evaluation in SARS-CoV-2 infected Vero-E6 cell model (qRT-PCR viral copy numbers); format: cell-based; conditions: Severe acute respiratory syndrome coronavirus 2, Vero C1008, 48 h, read-out: SARS-Cov-2 WT EC50 (µM)
SARS-Cov-2 XBB.1 = test: microbe, parasite or virus in culture; format: cell-based; conditions: Severe acute respiratory syndrome coronavirus 2, Vero C1008, 48 h, read-out: SARS-Cov-2 XBB.1 EC50 (µM)
SARS-Cov-2 Omicron BA.5 = test: microbe, parasite or virus in culture; format: cell-based; conditions: Severe acute respiratory syndrome coronavirus 2, Vero C1008, 48 h, read-out: SARS-Cov-2 Omicron BA.5 EC50 (µM)
[1] = Routine pharmacokinetic (PK) test in rats, oral gavage; format: in vivo; conditions: rat, 5 mg/kg, plasma
Protocol: Solvent formula: 10% DMSO, 5% ethanol, 5% Cremophor EL and 80% deionized water. […] Measure 1.316 mL of DMSO, vortex for 1 minute, and sonicate for 10 minutes to obtain a 5 mg/mL clear DMSO stock solution.
Take 1 mL of 5 mg/mL DMSO stock solution, add 0.5 mL of ethanol, vortex for 1 minute, add 0.5 mL of Cremophor EL, vortex for 1 minute, and finally add 8 mL of deionized water, vortex for 1 minute to obtain a clear administration formulation with a concentration of 0.5 mg/mL. Prepare it immediately before use and store it at room temperature after preparation.
Oral gavage administration, with the route of administration consistent with the intended clinical route of administration.
Oral sampling: There were a total of 8 collection time points, at 0.25, 0.5, 1, 2, 4, 6, 8 and 24 hours after administration.
Plasma: After euthanasia of the animals, blood was drawn by puncture. The samples were placed in tubes containing K2-EDTA and stored on ice until centrifugation. Within 1 hour after blood collection, the samples were centrifuged at 6800 g for 6 minutes at 2-8°C to obtain plasma samples, which were then frozen and stored at approximately -80°C.
Analyze the compound. While analyzing the sample, utilize quality control samples to evaluate the intra-day accuracy of the analytical batch.
When calculating pharmacokinetic parameters, the BLQ concentration data before the time to reach peak concentration (Tmax) in the oral administration group are calculated as "0", and BLQ concentration data after Tmax are excluded from all calculations.
The non-compartmental model statistical moment method using Phoenix WinNonlin® 7.0 software was employed to calculate the following main pharmacokinetic parameters: Tmax, Cmax, AUC(0-t), T1/2, etc.
1) Take 30 µL of mixed standard curve samples, quality control samples, blank samples, zero concentration samples, and test samples. 2) For standard curve samples, quality control samples, zero concentration samples and test samples, add 300 µL of internal standard working solution (containing 100 ng/mL IS). For blank samples, ULOQ without IS samples (if necessary), add the same volume of acetonitrile. 3) Vortex mix for 1 minute 4) Centrifuge at 4°C for 7 minutes (18,000g) 5) Take 200 µL of the supernatant to the corresponding wells of a 96-well injection plate. 6) Inject 4µL of sample for LC-MS/MS analysis. Table 4 Pharmacokinetic data of compounds after oral administration in vivo

[2] = clearance proportion
[3] = clearance proportion; remark: listed apart in the source
[4] = SARS-CoV-2 PLPro catalytic domain (746-1060), 10 minutes pre-incubation, read-out: PLpro IC50

For `Cc1ccc(N2CC3CC(C2)N3C)cc1C(=O)NC1(c2ccc3c4c(cccc24)C(=O)N3C)CC1` [Compound P11, 2-methyl-N-(1-(1-methyl-2-oxo-1,2-dihydrobenzo[cd]indol-6-yl)cyclopropyl)-5-(6-methyl-3,6-diazabicyclo[3.1.1]heptan-3-yl)benzamide], the IC50 (SARS-CoV-2 PL^Pro) was less than 40 nM, the EC50 (SARS-CoV-2 WT) was 0.1 to 1 µM and the EC50 (SARS-Cov-2 XBB.1) was 0.04 to 0.1 µM. It also gave an EC50 (SARS-Cov-2 Omicron BA.5) of 0.1 to 1 µM.

Compound `CC(C)N1C(=O)c2cccc3c(C4(NC(=O)c5cccc(N6CC7CC(C6)N7)c5)CC4)ccc1c23` [Compound P16, 5-(3,6-diazabicyclo[3.1.1]heptan-3-yl)-N-(1-(1-isopropyl-2-oxo-1,2-dihydrobenzo[cd]indol-6-yl)cyclopropyl)benzamide] has an IC50 (SARS-CoV-2 PL^Pro; read-out: PLpro IC50) of less than 40 nM, an EC50 (SARS-CoV-2 WT) of 0.1 to 1 µM and an EC50 (SARS-Cov-2 XBB.1) of 0.04 to 0.1 µM. It also gave an EC50 (SARS-Cov-2 Omicron BA.5) of 0.1 to 1 µM.

`Cc1ccc(C2=CCN(C)CC2)cc1C(=O)NC1(c2ccc3c4c(cccc24)C(=O)N3C)CC1` [Compound P7, 2-Methyl-5-(1-methyl-1,2,3,6-tetrahydropiperidin-4-yl)-N-(1-(1-methyl-2-oxo-1,2-dihydrobenzo[cd]indol-6-yl)cyclopropyl)benzamide] gave an IC50 (SARS-CoV-2 PL^Pro) of less than 40 nM, an EC50 (SARS-CoV-2 WT) of 0.1 to 1 µM and an EC50 (SARS-Cov-2 XBB.1) of 0.1 to 1 µM. The EC50 (SARS-Cov-2 Omicron BA.5) was 0.1 to 1 µM.

In the case of `Cc1ccc(N2CC(N3CCCCC3C)C2)cc1C(=O)NC1(c2ccc3c4c(cccc24)C(=O)N3C)CC1` (centres unmarked) [Compound P34, 2-Methyl-N-(1-(1-methyl-2-oxo-1,2-dihydrobenzo[cd]indol-6-yl)cyclopropyl)-5-(3-(2-methylpiperidin-1-yl)azetidin-1-yl)benzamide], the IC50 (SARS-CoV-2 PL^Pro; [4]) is reported as less than 40 nM.

`Cc1ccc(N2CC3CNCC3C2)cc1C(=O)NC1(c2ccc3c4c(cccc24)C(=O)N3C)CC1` (centres unmarked) [Compound P9, 5-(hexahydropyrrolo[3,4-c]pyrrol-2(1H)-yl)-2-methyl-N-(1-(1-methyl-2-oxo-1,2-dihydrobenzo[cd]indol-6-yl)cyclopropyl)benzamide] showed an IC50 (SARS-CoV-2 PL^Pro; [4]) of less than 40 nM.

In the case of `Cc1ccc(N2CC3CCCN(C)C3C2)cc1C(=O)NC1(c2ccc3c4c(cccc24)C(=O)N3C)CC1` (centres unmarked) [Compound P39, 2-Methyl-N-(1-(1-methyl-2-oxo-1,2-dihydrobenzo[cd]indol-6-yl)cyclopropyl)-5-(1-methyloctahydro-6H-pyrrolo[3,4-b]pyridin-6-yl)benzamide], the IC50 (SARS-CoV-2 PL^Pro; [4]) is reported as less than 40 nM.

With `Cc1ccc(N2CC(N3CCOC(C)(C)C3)C2)cc1C(=O)NC1(c2ccc3c4c(cccc24)C(=O)N3C)CC1` [Compound P33, 5-(3-(2,2-dimethylmorpholinyl)azetidin-1-yl)-2-methyl-N-(1-(1-methyl-2-oxo-1,2-dihydrobenzo[cd]indol-6-yl)cyclopropyl)benzamide] the IC50 (SARS-CoV-2 PL^Pro; read-out: PLpro IC50) was 100 to 1000 nM.

Work on `CCN1C(=O)c2cccc3c(C4(NC(=O)c5cc(N6CC7CC(C6)N7)ccc5C)CC4)ccc1c23` [Compound P29] yielded an IC50 (SARS-CoV-2 PL^Pro; read-out: PLpro IC50) of less than 40 nM.

`Cc1ccc(N2C[C@H]3CN(C)C[C@H]32)cc1C(=O)NC1(c2ccc3c4c(cccc24)C(=O)N3C)CC1` [Compound P20, 2-Methyl-N-(1-(1-methyl-2-oxo-1,2-dihydrobenzo[cd]indol-6-yl)cyclopropyl)-5-((1R,5S)-3-methyl-3,6-diazabicyclo[3. 2.0]heptan-6-yl)benzamide] gave an IC50 (SARS-CoV-2 PL^Pro; [4]) of 100 to 1000 nM.

Work on `Cc1ccc(N2CCN(C)CC2)cc1C(=O)NC1(c2ccc3c4c(cccc24)C(=O)N3C)CC1` [Compound P1, 2-Methyl-N-(1-(1-methyl-2-oxo-1,2-dihydrobenzo[cd]indol-6-yl)cyclopropyl)-5-(4-methylpiperazin-1-yl)benzamide] yielded an EC50 (SARS-CoV-2 WT) of 0.1 to 1 µM, an EC50 (SARS-Cov-2 XBB.1) of 0.1 to 1 µM and an EC50 (SARS-Cov-2 Omicron BA.5) of 0.1 to 1 µM. The AUC(0-t) [1] was 3390 ng·h/mL, the Cmax [1] was 393 ng/mL and the Tmax [1] was 3 h. For the same compound, the half-life [1] was 3 h, the “Rat Eh (%)” value [2] was 37.3% and the “Human Eh (%)” value [3] was 77%.

Work on `Cc1ccc(N2CCN(CCO)CC2)cc1C(=O)NC1(c2ccc3c4c(cccc24)C(=O)N3C)CC1` [Compound P53, 5-(4-(2-Hydroxyethyl)piperazin-1-yl)-2-methyl-N-(1-(1-methyl-2-oxo-1,2-dihydrobenzo[cd]indol-6-yl)cyclopropyl)ben zamide] yielded an IC50 (SARS-CoV-2 PL^Pro; [4]) of 40 to 100 nM.

In the case of `Cc1ccc(N2CCN(C)CC2)cc1C(=O)NC1(c2ccc3c4c(cccc24)C(=O)N3)CC1` [Compound P2, 2-Methyl-5-(4-methylpiperazin-1-yl)-N-(1-(2-oxo-1,2-dihydrobenzo[cd]indol-6-yl)cyclopropyl)benzamide], the IC50 (SARS-CoV-2 PL^Pro; [4]) is reported as 40 to 100 nM.

`Cc1ccc(N2CC(N3CCC(C)(O)CC3)C2)cc1C(=O)NC1(c2ccc3c4c(cccc24)C(=O)N3C)CC1` [Compound P17, 5-(3-(4-Hydroxy-4-methylpiperidin-1-yl)azetidin-1-yl)-2-methyl-N-(1-(1-methyl-2-oxo-1,2-dihydrobenzo[cd]indol-6-yl)cyclopropyl)benzamide] gave an IC50 (SARS-CoV-2 PL^Pro; [4]) of less than 40 nM, an EC50 (SARS-CoV-2 WT) of less than 0.04 µM and an EC50 (SARS-Cov-2 XBB.1) of 0.04 to 0.1 µM. The EC50 (SARS-Cov-2 Omicron BA.5) was 0.1 to 1 µM.

Compound `Cc1ccc(N2CC(N3CCOCC3)C2)cc1C(=O)NC1(c2ccc3c4c(cccc24)C(=O)N3C)CC1` [Compound P46, 2-methyl-N-(1-(1-methyl-2-oxo-1,2-dihydrobenzo[cd]indol-6-yl)cyclopropyl)-5-(3-morpholinazetidin-1-yl)benzamide] has an IC50 (SARS-CoV-2 PL^Pro; read-out: PLpro IC50) of 100 to 1000 nM.

Compound `Cc1ccc(N2CCN3CCC[C@@H]3C2)cc1C(=O)NC1(c2ccc3c4c(cccc24)C(=O)N3C)CC1` [Compound P25, (R)-5-(hexahydropyrrolo[1,2-a]pyrazin-2(1H)-yl)-2-methyl-N-(1-(1-methyl-2-oxo-1,2-dihydrobenzo[cd]indol-6-yl)cyclopropyl)benzamide] has an IC50 (SARS-CoV-2 PL^Pro; [4]) of less than 40 nM.

Work on `Cc1ccc(N2CC3CC(C2)N3)cc1C(=O)NC1(c2ccc3c4c(cccc24)C(=O)N3C)CC1` [Compound P5, 5-(3,6-diazabicyclo[3.1.1]heptan-3-yl)-2-methyl-N-(1-(1-methyl-2-oxo-1,2-dihydrobenzo[cd]indol-6-yl)cyclopropyl)be nzamide] yielded an IC50 (SARS-CoV-2 PL^Pro) of less than 40 nM, an EC50 (SARS-CoV-2 WT) of less than 0.04 µM and an EC50 (SARS-Cov-2 XBB.1) of 0.04 to 0.1 µM. For the same compound, the EC50 (SARS-Cov-2 Omicron BA.5) was 0.1 to 1 µM.

`CCN1C(=O)c2cccc3c(C4(NC(=O)c5cc(N6CCN(C)CC6)ccc5C)CC4)ccc1c23` [Compound P27, N-(1-(1-ethyl-2-oxo-1,2-dihydrobenzo[cd]indol-6-yl)cyclopropyl)-2-methyl-5-(4-methylpiperazin-1-yl)benzamide] showed an IC50 (SARS-CoV-2 PL^Pro; [4]) of less than 40 nM.

`Cc1ccc(N2CC(N3CCC(F)(F)CC3)C2)cc1C(=O)NC1(c2ccc3c4c(cccc24)C(=O)N3C)CC1` [Compound P31, 5-(3-(4,4-difluoropiperidin-1-yl)azetidin-1-yl)-2-methyl-N-(1-(1-methyl-2-oxo-1,2-dihydrobenzo[cd]indol-6-yl)cyclopropyl)benzamide] showed an IC50 (SARS-CoV-2 PL^Pro; [4]) of 40 to 100 nM.

With `Cc1ccc(N2CC(N3CCC(O)CC3)C2)cc1C(=O)NC1(c2ccc3c4c(cccc24)C(=O)N3C)CC1` [Compound P32, 5-(3-(4-hydroxypiperidin-1-yl)azetidin-1-yl)-2-methyl-N-(1-(1-methyl-2-oxo-1,2-dihydrobenzo[cd]indol-6-yl)cyclopropyl)benzamide] the IC50 (SARS-CoV-2 PL^Pro; [4]) was less than 40 nM.

With `Cc1ccc(N2C3CCC2CN(C)C3)cc1C(=O)NC1(c2ccc3c4c(cccc24)C(=O)N3C)CC1` [Compound P8, 2-Methyl-N-(1-(1-methyl-2-oxo-1,2-dihydrobenzo[cd]indol-6-yl)cyclopropyl)-3-methyl-3,8-diazabicyclo[3.2.1]octan-8-yl benzamide] the IC50 (SARS-CoV-2 PL^Pro) was 100 to 1000 nM.

With `Cc1ccc(-n2ccc(N(C)C)c2)cc1C(=O)NC1(c2ccc3c4c(cccc24)C(=O)N3C)CC1` [Compound P15, 5-(3-(dimethylamino)pyrrol-1-yl)-2-methyl-N-(1-(1-methyl-2-oxo-1,2-dihydrobenzo[cd]indol-6-yl)cyclopropyl)benzamide] the IC50 (SARS-CoV-2 PL^Pro; [4]) was less than 40 nM.
